Data taken from patent publication US10080779B2, “Method for increasing the expression of anti-microbial peptides by keratinocytes comprising administering a composition comprising IL-17, TNF-alpha and OSM” (Universite D'Angers, priority 2004, dated 2018).

What was measured:
MAP kinase (ERK1/2) = test: MAP kinase phosphorylation in NHEK (Western blot); format: cell-based, human; conditions: NHEK stimulated with OSM
Procedure: For STAT3 and MAPK phosphorylation, NHEK were stimulated for 15 min in the presence of the indicated cytokine. Cells were lysed in SDS sample buffer (62.5 mM Tris-HCl pH 6.8, 2% SDS, 10% glycerol, 50 mM DTT, 0.1% bromophenol blue), sonicated and then submitted to SDS-PAGE and transferred onto an Immobilon membrane. The membranes were subsequently incubated overnight with the primary antibody, before being incubated with the appropriate peroxidase-labelled secondary antibody for 60 min. The reaction was visualized by chemiluminescence according to the manufacturer's instructions. Membranes were stripped in 0.1 M glycine pH 2.8 for 2 h and neutralized in 1 M Tris-HCl pH 7.6 before reblotting. For neutralizing experiments, NHEK were incubated with the appropriate antibodies for 2 h before stimulation.

NHEK [1] = test: Gene expression profiling of NHEK using cDNA macroarrays; format: cell-based, human; conditions: 10 ng/ml OSM 24 h
Procedure: (§1) Total RNA was isolated as described for PCR studies. DNase treatment, polyA^+ RNA enrichment, ^33P-labelled cDNA probe synthesis, purification and hybridization to custom Atlas array membranes (Bernard, Pedretti et al. 2002) were performed according to Clontech's recommendations (Clontech, Palo Alto, USA). Membranes were exposed for 5 days to a Molecular Dynamics Storm storage screen and scanned using a phosphorimager scanner (Molecular Dynamics Storm analyser, Amersham Biosciences, Uppsala, Sweden). After local background substraction, average signal intensity from duplicate spots was normalized for differences in probe labelling using the values obtained for housekeeping genes (Bernard et al., 2002). For each gene, the OSM-induced modulation was expressed as the relative expression value for stimulated versus control sample. Arbitrarily, only modulation above 2 was considered significant for confirmation using RT-real time PCR assay.

[2] = test system: reconstituted human epidermis (RHE); test: Gene expression profiling of RHE using cDNA macroarrays; format: cell-based; conditions: 10 ng/ml OSM 24 h
Procedure: as §1
For gene expression profiling using cDNA macroarrays, 17 days old RHE were grown for 1 day in SkinEthic maintenance medium prior to stimulation in the absence or presence of OSM for 24 h. Total RNA was isolated and cDNA arrays were performed as described above.

NHEK [3] = test: S100 proteins expression in NHEK (Western blot); format: cell-based, human; conditions: 10 ng/ml OSM, day 2 and day 4
Procedure: […] Cell lysis was performed with 50 mM Tris HCl pH 7.4, 150 mM NaCl, 1 mM EDTA, 1% Triton, 1% sodium deoxycholate, 0.1% SDS, 1 mM PMSF, 1 mM sodium orthovanadate, 1% protease inhibitors. S100A7, S100A8 and S100A9 were detected by immunochemistry as described above. Ponceau red staining was used to control loading homogeneity.

[4] = test system: reconstituted human epidermis (RHE); test: Reconstituted human epidermis model, histology and immunohistochemistry (OSM); format: cell-based
Procedure: For histological and immunohistochemical studies, RHE, grown for 12 days at the air-medium interface, were purchased from SkinEthic Laboratories (Nice, France). […] As recommended, RHE were grown for 1 day in SkinEthic growth medium prior to stimulation in the absence or presence of OSM for 4 days. They were then fixed in a balanced 10% formalin solution and embedded in paraffin. Four micron vertical sections were stained with heamatoxylin/eosin or with specific Ab and peroxidase-conjugated Antibodies, and counterstained with haematoxylin according to standard protocols (Rosdy, Bertino et al. 1997). Anti-K10 keratin and anti-filaggrin monoclonal Antibodies were from Lab Vision Corporation (Fremont, Calif., USA).

NHEK [5] = test: Cytokine measurement by ELISA in NHEK culture supernatants; format: cell-based, human; conditions: 10 ng/ml, 96 h
Procedure: NHEK were obtained as previously described, from surgical samples of healthy breast skin (Boniface et al, 2005). NHEK were cultured to 80% of confluence and then starved for 24 h in Keratinocyte SFM without addition of growth factors before stimulation. Cells were stimulated with or without 10 ng/ml of recombinant IL-17A, OSM, TNFα, IL-22 and IL-1α alone or in combination (R&D systems Europe, Lille, France) during 24 h for mRNA quantification or 48 h to 96 h for protein quantification.
Levels of BD2, BD3 and CXCL8 were determined using Human ELISA development kit (Peprotech), and CXCL1 and CXCL5 with DuoSet reagents (R&D Systems Europe).

RHE = RHE histology and immunohistochemistry (Example 14); format: cell-based, human; conditions: single cytokines, 72 h
Procedure: Normal human epidermal keratinocytes (NHEK) were obtained as previously described, from surgical samples of healthy breast skin (Boniface et al, 2005). NHEK were cultured to 80% of confluence allowing the expression of a large panel of keratinocyte differentiation markers, and then starved for 24 h in Keratinocyte SFM containing 0.03 mM Ca^2+ (Invitrogen Life Technologies, Cergy Pontoise, France) before stimulation. Confluent differentiated cells were stimulated with or without recombinant IL-17A, OSM, TNFα, IL-22 and IL-1α alone at maximum effective concentrations (reported previously around 10 ng/ml (Boniface et al, 2005 and Boniface et al, 2007)) or in combination (R&D systems Europe, Lille, France) during 2 h to 72 h for mRNA quantification. RHE were generated on polycarbonate culture inserts, from surgical samples of paediatric foreskins as previously described (Guenou et al., 2009). RHE were stimulated with or without recombinant IL-17A, OSM, TNFα, IL-22 and IL-1α alone or in combination, with or without a Janus protein Tyrosine Kinases (JAKs) inhibitor 10 μM (Calbiochem, 420099), during 24 h for mRNA quantification or during 72 h for immunohistological analysis.
RHE were washed and fixed with formaldehyde solution. Fixed tissues were dehydrated with increasing ethanol concentrations, embedded in paraffin and sections were carried out using a microtome (4 μm thickness). The sections were deparaffinised, washed and incubated with hydrogen peroxide. The sections were incubated with anti-CK10 (SantaCruz, SC-23877), anti-LOR (Eurogentec, PRB-145P), anti-FLG (SantaCruz, SC-66192), anti-IVL (Biomedical Technologies, BT-601), anti-S100A7 (Clinisciences, IMG-409A) and then detected using a biotin-conjugated secondary antibody (Vector, RTU vectastain universal quick kit, PK-7800). After peroxidase-conjugated streptavidine (Vector, RTU vectastain universal quick kit, PK-7800) and peroxidase substrate addition (Dako, Substrat hyper-sensible AEC+), nuclei were counter-stained using a solution of hematoxylin. Sections were observed using a NIKON E400 microscope. The images were captured using a NIKON DS-Ril and processed with NIS-Elements 3.10 software.

OSM: human recombinant oncostatin M, cytokine of the IL-6 family
MAP kinase phosphorylation (MAP kinase (ERK1/2)): quickly increased the MAP kinase phosphorylation
Expression of CXCL1, CXCL5, CXCL8 and PDGF-A genes (NHEK [1]): increased the expression
Expression of calcium binding proteins S100A7, S100A8, S100A9, S100 neutrophil protein (NHEK [1]): marked increase
Expression of genes associated with keratinocyte differentiation (CK1, CK10, fillagrin, loricrin) (NHEK [1]): down regulates
Number of genes with decreased expression (NHEK [1]; array of 586 cDNAs): 38 genes
Number of genes with increased expression (NHEK [1]; array of 586 cDNAs): 36 genes
S100A7, S100A8, S100A9 and S100 neutrophil protein gene expression [2]: strongly up-regulated
S100A7, S100A8, S100A9 protein expression (NHEK [3]): increased expression of studied proteins
Hyperplasia / overall thickness of RHE ([4]; 10 ng/ml OSM, 4 days): triggered the hyperplasia of the keratinocytes layers
Ki67 expression ([4]; RHE treated with OSM): not induced
Filaggrin and keratin 10 expression (immunohistochemistry) ([4]; RHE, 10 ng/ml OSM, 4 days): decrease of filaggrin and keratin 10 expression
S100A7 protein (immunohistochemistry) ([4]; RHE, 10 ng/ml OSM, 4 days): S100A7 protein up-regulation
BD3 production (NHEK [5]): significant increase
CXCL1, CXCL5, CXCL8 production, single cytokines (NHEK [5]): discrete effect
CK10, LOR and FLG expression (immunohistology) (RHE; RHE): decreases expression of CK10, LOR and FLG
IVL expression (immunohistology) (RHE; RHE): strongly
S100A7 expression (immunohistology) (RHE; RHE): strongly induced
RHE histology (RHE): significant keratinocyte hyperplasia
